According to patent publication US8093274B2, “Inhibitors of protein prenyltransferases” (The Regents of the University of California, priority 2006, dated 2012):
Where two headings read alike, the source gives them in different places.

What was measured:
[1] = biological target: GGTase I (substrate K-Ras4B) (Homo sapiens, UniProt P49354+P53609); test: GGTase I filter-binding assay with K-Ras4B as substrate; type: biochemical; details: read-out: % activity of GGTase I for protein K-Ras4B in the presence of the compound
Protocol: (§1) The pilot library was screened for inhibitors of protein geranylgeranyltransferase type I. Protein prenyltransferase assays were carried out by using filter binding. Two different substrates, RhoA and K-Ras4B, were used for the assay. RhoA ends with the CaaL motif and is an exclusive substrate for GGTase I, while K-Ras4B ends with the CaaX motif and is modified by both GGTase I and FTase.
(§2) The % activity of GGTase I was determined as follows: a working solution that contained each compound in DMSO at the concentration of 1 mM was prepared. The working solution was added to GGTase I reaction mixture so that the final concentration of the compound is 50 μM. GGTase I activity was assayed by incubating [^3H]GGPP with K-Ras4B or RhoA protein in the presence of GGTase I and examining radioactivity incorporated into the substrate protein by spotting onto a filter paper. After washing with TCA, ethanol and acetone, the radioactivity retained on the filter was determined by the use of a scintillation counter. GGTase I activity in the presence of DMSO was taken as a 100% value and the activity in the presence of the compound was shown as percent activity compared with the 100% value. […] For 6-aryl-4-mercapto-N-sulfonyl-piperidine-3-carboxylic acid 11 the 4-mercapto substituent appeared critical to endowing GGTase inhibitory activity. […] 4-Chlorobenzylthio substituent was the next best; 12 compounds out of 21 containing the 4-chlorobenzylthio moiety were active. 4-Benzylthio substituent was also good; 7 piperidines out of 21 bearing 4-benzylthio group were active. […] 19 imines (C15>C12=C41>C40>C01=C11>C05=C10=C30=C35=C37=C38>C02, C03, C04, C06, C39=C43) out of 21 appeared in the GGTIs. […] This corresponds to 47 6-aryl-4-mercapto-N-sulfonyl-piperidine-3-carboxylic acids out of 357 compounds.
(§3) A collection of 138 heterocycles was screened for their ability to inhibit the activity of human GGTase-I to geranylgeranylate K-Ras4B or RhoA. Purified GGTase-1 was incubated with its substrate protein K-Ras4B or RhoA, [^3H]GGPP, and the 138 compounds. After 30 min, the degree of incorporation of tritiated geranylgeranyl groups was measured using a scintillation counter.

[2] = biological target: GGTase I (substrate RhoA) (Homo sapiens, UniProt P49354+P53609); test: GGTase I filter-binding assay with RhoA as substrate; type: biochemical; details: read-out: % activity of GGTase I for protein RhoA in the presence of the compound
Protocol: as §1, §2, §3
The GGTase-I assay was carried out using RhoA as a substrate protein, GGTase-I (JENA Bioscience) and [3H]geranylgeranyl pyrophosphate. Incubation was for 30 min at 37 C. GGTase-H (or RabGGTase) assay was carried out using YPT1 as a substrate protein, GGTase-H (Calbiochem, San Diego, Calif.) plus REP1 (Calbiochem) and [3H]geranylgeranyl pyrophosphate. Incubation was for 30 min at 37 C. FIGS. 20D-20F show the three dimensional structure of GGTase I (D), FTsse (E) and GGTase II (F) which can be obtained from X-ray diffraction studies of protein crystals.

[3] = 50 μM compound, DMSO = 100%, smaller numbers indicate better inhibition, first number of pair
[4] = 50 μM compound, DMSO = 100%, smaller numbers indicate better inhibition, second number of pair

| activity at 50 µM [1, 3] | activity at 50 µM [2, 4] | SMILES | activity at 50 µM [1] | activity at 50 µM [2] |
| --- | --- | --- | --- | --- |
| 23.1% | 8.4% | C=CCS[C@H]1[C@@H](C(=O)O)[C@H](c2ccc(Cl)cc2)N(S(=O)(=O)c2ccccc2C)[C@@H]1CCCC |  |  |
| 16.1% | 7.3% | Cc1ccc(S(=O)(=O)N2[C@H](CC3CCCC3)[C@@H](SCCC(=O)OC(C)(C)C)[C@@H](C(=O)O)[C@@H]2c2ccc(Cl)c(Cl)c2)cc1 |  |  |
| 28.4% | 8.9% | C=CCS[C@H]1[C@@H](C(=O)O)[C@H](c2ccc(Cl)cc2)N(S(=O)(=O)c2ccccc2C)[C@@H]1CCC |  |  |
| 15.5% | 5.5% | C=CCS[C@H]1[C@@H](C(=O)O)[C@H](c2ccc(Br)cc2)N(S(=O)(=O)c2ccc(C)cc2)[C@@H]1CCCCCC |  |  |
| 30.4% | 9.7% | C=CCS[C@H]1[C@@H](C(=O)O)[C@H](c2cccc(F)c2)N(S(=O)(=O)c2ccc(C)cc2)[C@@H]1CC1CCCC1 |  |  |
| 12.6% | 10.3% | Cc1ccc(S(=O)(=O)N2C(c3ccc(Cl)c(Cl)c3)CC=C(C(=O)O)[C@@H]2c2cccc(C)c2)cc1 (stereo partly shown) |  |  |
| 27.2% | 7.6% | CC[C@@H]1[C@@H](SCCC(=O)OC(C)(C)C)[C@@H](C(=O)O)[C@H](c2ccc(Cl)c(Cl)c2)N1S(=O)(=O)c1ccc(C)cc1 |  |  |
| 25.2% | 7.7% | C=CCS[C@H]1[C@@H](C(=O)O)[C@H](c2ccc(Cl)cc2)N(S(=O)(=O)c2ccc(C)cc2)[C@@H]1CC1CCCC1 |  |  |
| 48.7% | 8% | COc1ccc(S[C@H]2[C@@H](C(=O)O)[C@H](c3ccc(Cl)cc3)N(S(=O)(=O)c3ccc(Cl)cc3)[C@@H]2C(C)C)cc1 |  |  |
| 22.3% | 8.1% | C=CCS[C@H]1[C@@H](C(=O)O)[C@H](c2ccc(OC)c(OC)c2)N(S(=O)(=O)c2ccc(C)cc2)[C@@H]1CCCCCC |  |  |
| 23.1% | 9.3% | C=CCS[C@H]1[C@@H](C(=O)O)[C@H](c2ccc(C#N)cc2)N(S(=O)(=O)c2ccc(C)cc2)[C@@H]1C(C)C |  |  |
| 21.7% | 9.2% | CCC[C@@H]1[C@@H](SCCC(=O)OC(C)(C)C)[C@@H](C(=O)O)[C@H](c2ccc(Cl)cc2)N1S(=O)(=O)c1ccc(Cl)cc1 |  |  |
| 31.5% | 7.1% | CCCC[C@@H]1[C@@H](Sc2ccc(C)cc2)[C@@H](C(=O)O)[C@H](c2cccc(F)c2)N1S(=O)(=O)c1ccc(C)cc1 |  |  |
| 31.7% | 6.1% | C=CCS[C@H]1[C@@H](C(=O)O)[C@H](c2ccc(C(C)C)cc2)N(S(=O)(=O)c2ccc(C)cc2)[C@@H]1CC1CCCC1 |  |  |
| 16.1% | 14.3% | Cc1ccc(S(=O)(=O)N2C(c3cccc(Br)c3)CC=C(C(=O)O)[C@@H]2c2cccc(C)c2)cc1 (stereo partly shown) |  |  |
| 15% | 7.5% | CCCCCC[C@@H]1[C@@H](Sc2ccc(C)cc2)[C@@H](C(=O)O)[C@H](c2ccc(Cl)cc2)N1S(=O)(=O)c1ccccc1 |  |  |
| 20.2% | 7.8% | CCC[C@@H]1[C@@H](SCCC(=O)OC(C)(C)C)[C@@H](C(=O)O)[C@H](c2cccc(F)c2)N1S(=O)(=O)c1ccc(C)cc1 |  |  |
| 10.9% | 1.1% | CCC[C@@H]1[C@@H](Sc2ccc(OC)cc2)[C@@H](C(=O)O)[C@H](c2ccc(Cl)c(Cl)c2)N1S(=O)(=O)c1ccc(C)cc1 |  |  |
| 21.5% | 6% | C=CCS[C@H]1[C@@H](C(=O)O)[C@H](c2ccc(C#N)cc2)N(S(=O)(=O)c2ccc(C)cc2)[C@@H]1CCCCCC |  |  |
| 15.1% | 6.8% | C=CCS[C@H]1[C@@H](C(=O)O)[C@H](c2ccc(Cl)c(Cl)c2)N(S(=O)(=O)c2ccc(C)cc2)[C@@H]1CCCCCC |  |  |
| 12.4% | 15.6% | Cc1ccc([C@H]2C(C(=O)O)=CCC(c3ccc(Cl)c(Cl)c3)N2S(=O)(=O)c2ccc(C)cc2)cc1 (stereo partly shown) |  |  |
| 12.1% | 8.6% | C=CCS[C@H]1[C@@H](C(=O)O)[C@H](c2ccc(Cl)c(Cl)c2)N(S(=O)(=O)c2ccc(C)cc2)[C@@H]1CC1CCCC1 |  |  |
| 20.6% | 5.6% | Cc1ccc(S(=O)(=O)N2[C@H](CC3CCCC3)[C@@H](SCCC(=O)OC(C)(C)C)[C@@H](C(=O)O)[C@@H]2c2cccc(Cl)c2)cc1 |  |  |
| 14.7% | 4.1% | CCC[C@@H]1[C@@H](Sc2ccc(C)cc2)[C@@H](C(=O)O)[C@H](c2cccc(F)c2)N1S(=O)(=O)c1ccc(C)cc1 |  |  |

The remaining lines, values behind:

| SMILES | activity at 50 µM [1, 3] | activity at 50 µM [2, 4] | activity at 50 µM [1] | activity at 50 µM [2] |
| --- | --- | --- | --- | --- |
| Cc1ccc(S(=O)(=O)N2C(c3cccc(Br)c3)CC=C(C(=O)O)[C@@H]2c2cccc(Br)c2)cc1 (stereo partly shown) | 9.4% | 3.7% |  |  |
| CC(C)(C)OC(=O)CCS[C@H]1[C@@H](C(=O)O)[C@H](c2ccc(Cl)cc2)N(S(=O)(=O)c2ccc(Cl)cc2)[C@@H]1CC1CCCC1 | 22.5% | 9.8% |  |  |
| Cc1ccc(S(=O)(=O)N2C(c3ccc(Cl)c(Cl)c3)CC=C(C(=O)O)[C@@H]2c2ccc(Cl)cc2)cc1 (stereo partly shown) | 17.7% | 12.1% |  |  |
| Cc1ccc(S(=O)(=O)N2C(c3ccc(Cl)c(Cl)c3)CC=C(C(=O)O)[C@@H]2c2cccc(Cl)c2)cc1 (stereo partly shown) |  |  | 10.7% | 4.5% |
| Cc1ccccc1S(=O)(=O)N1C(c2ccc(Cl)cc2)CC=C(C(=O)O)[C@@H]1c1ccccc1F (stereo partly shown) | 8.4% | 4.1% |  |  |
| COc1ccc([C@H]2C(C(=O)O)=C[C@@H](C(C)(C)C)N2S(=O)(=O)c2ccc(C)cc2)cc1OC | 23.4% | 6.1% |  |  |
| Cc1ccc(S(=O)(=O)N2C(c3cccc(Br)c3)CC=C(C(=O)O)[C@@H]2c2cccc(Cl)c2)cc1 (stereo partly shown) | 9.8% | 7.9% |  |  |
| Cc1ccccc1S(=O)(=O)N1C(c2ccc(Cl)cc2)CC=C(C(=O)O)[C@@H]1c1cccc(Br)c1 (stereo partly shown) | 10.6% | 8.8% |  |  |
| Cc1ccc(S(=O)(=O)N2C(c3cccc(Cl)c3)CC=C(C(=O)O)[C@@H]2c2cccc(Br)c2)cc1 (stereo partly shown) | 11% | 7% |  |  |
| Cc1ccccc1S(=O)(=O)N1C(c2ccc(Cl)cc2)CC=C(C(=O)O)[C@@H]1c1ccc(F)cc1 (stereo partly shown) | 15.6% | 12.6% |  |  |
| Cc1ccccc1S(=O)(=O)N1[C@@H](c2ccc(Cl)cc2)C(C(=O)O)=C[C@H]1CC1CCCC1 |  |  | 23.7% | 9.1% |
| Cc1ccc(S(=O)(=O)N2[C@@H](c3cccc(F)c3)C(C(=O)O)=C[C@H]2C(C)(C)C)cc1 |  |  | 23.7% | 9.1% |
| Cc1ccc(S(=O)(=O)N2C(c3ccc(Cl)c(Cl)c3)CC=C(C(=O)O)[C@@H]2c2ccc(Br)cc2)cc1 (stereo partly shown) |  |  | 18.7% | 11.3% |
| C=CCS[C@H]1[C@@H](C(=O)O)[C@H](c2ccc(Cl)cc2)N(S(=O)(=O)c2ccccc2C)[C@@H]1CC1CCCC1 | 22.4% | 4.9% |  |  |
| Cc1ccc(S(=O)(=O)N2C(c3cccc(Br)c3)CC=C(C(=O)O)[C@@H]2c2ccccc2)cc1 (stereo partly shown) | 35.2% | 19.4% |  |  |
| O=C(O)C1=CCC(c2ccc(Cl)cc2)N(S(=O)(=O)c2ccc(Cl)cc2)[C@H]1c1cccc(Br)c1 (stereo partly shown) | 8.6% | 5% |  |  |
| Cc1ccc(S(=O)(=O)N2C(c3cccc(Cl)c3)CC=C(C(=O)O)[C@@H]2c2cccc(Cl)c2)cc1 (stereo partly shown) | 43.7% | 6% |  |  |
| Cc1ccccc1S(=O)(=O)N1[C@H](CC2CCCC2)[C@@H](SCCC(=O)OC(C)(C)C)[C@@H](C(=O)O)[C@@H]1c1ccc(Cl)cc1 | 10% | 7.8% |  |  |
| Cc1ccccc1S(=O)(=O)N1C(c2ccc(Cl)cc2)CC=C(C(=O)O)[C@@H]1c1ccccc1 (stereo partly shown) |  |  | 13.4% | 5.8% |
| CC(C)(C)OC(=O)CCS[C@H]1[C@@H](C(=O)O)[C@H](c2ccc(Cl)cc2)N(S(=O)(=O)c2ccccc2)[C@@H]1CC1CCCC1 | 30.4% | 9.7% |  |  |
